This is an account of results in patent EP0268871A1, “Quinoline derivatives” (priority 1986, dated 1988).

This test deals with acetylcholinesterase (Homo sapiens, UniProt P22303). The experiment in a line: Determination of inhibitory activity against acetylcholinesterase (photometric method of Ellman et al.). It counts as biochemical. Particulars: Relative ratio = IC50 (molar) of Tacrine / IC50 (molar) of test compound; IC50 = concentration of drug which inhibits 50% level of control. On the procedure: Determination of inhibitory activity against acetylcholinesterase
acetylcholinesterase, sequence (P22303 32-614): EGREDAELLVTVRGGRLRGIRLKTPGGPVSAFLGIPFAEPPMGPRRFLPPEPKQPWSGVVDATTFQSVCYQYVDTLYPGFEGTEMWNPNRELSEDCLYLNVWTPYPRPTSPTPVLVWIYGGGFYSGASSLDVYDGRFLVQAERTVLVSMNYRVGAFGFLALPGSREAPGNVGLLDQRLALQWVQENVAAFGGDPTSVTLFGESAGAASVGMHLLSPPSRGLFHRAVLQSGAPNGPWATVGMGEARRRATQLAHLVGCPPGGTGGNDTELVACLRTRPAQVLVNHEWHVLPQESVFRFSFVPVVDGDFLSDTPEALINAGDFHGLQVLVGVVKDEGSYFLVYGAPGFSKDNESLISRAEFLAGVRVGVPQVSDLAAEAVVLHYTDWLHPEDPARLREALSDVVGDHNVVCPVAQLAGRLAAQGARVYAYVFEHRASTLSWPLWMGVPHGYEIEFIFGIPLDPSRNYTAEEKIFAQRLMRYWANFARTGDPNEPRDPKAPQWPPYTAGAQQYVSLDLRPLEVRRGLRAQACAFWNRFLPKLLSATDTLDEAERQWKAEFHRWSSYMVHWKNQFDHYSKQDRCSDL
The inhibitory activity against acetylchalinesterase of the compounds provided with the present invention was determined by the photometric methods described in Ellman et al., Biochemical Pharmacology, Vol. 7, p.

Regarding `Nc1c2c(nc3cc(F)ccc13)CCCC2` [Example 2, 9-amino-6-fluoro-1,2,3,4-tetrahydroacridine], the “Acetylcholinesterase Inhibition (reative ratio*)” value is listed as 2.53.
The figure for `Nc1c2c(nc3cccc(F)c13)CCC2` [Example 6] is 1.75; for `Cc1cccc2nc3c(c(N)c12)CC(C)C3` (centres unmarked) [Example 14] it is 1.27; for `Nc1c2c(nc3cc(Cl)ccc13)C1C=CC2CC1` (centres unmarked) [Example 94] it is 2.22.
Then `Nc1c2c(nc3cc(C(F)(F)F)ccc13)CCCC2` [compound 36], with 1.15.
On to `Nc1c2c(nc3cc(F)c(F)cc13)CCCCC2` [compound 38], for which the “Acetylcholinesterase Inhibition (reative ratio*)” value is reported as 2.04.
Then `Cc1cccc2nc3c(c(N)c12)CSCC3` [compound 112], with 1.30; and `Nc1c2c(nc3cccc(F)c13)CSCC2` [compound 118], with 3.13.
The figure for `Nc1c2c(nc3cccc(Cl)c13)CSCC2` [compound 149] is 4.12; for `Nc1c2c(nc3c(F)cccc13)CCCCC2` [compound 156] it is 2.50; for `Nc1c2c(nc3cccc(F)c13)CCCC2` [compound 157] it is 3.60.
